Data on nine compounds can be found in patent publication US20240217973A1, “IMIDAZOPYRIDINE COMPOUNDS AND USE THEREOF” (MEDSHINE DISCOVERY INC., priority 2021, published 2024).

As usually defined, the IC50 is the point on the concentration scale where inhibition reaches its midpoint. Higher therefore signals a need for much substance.

BTK kinase, sequence (Q06187 whole entry): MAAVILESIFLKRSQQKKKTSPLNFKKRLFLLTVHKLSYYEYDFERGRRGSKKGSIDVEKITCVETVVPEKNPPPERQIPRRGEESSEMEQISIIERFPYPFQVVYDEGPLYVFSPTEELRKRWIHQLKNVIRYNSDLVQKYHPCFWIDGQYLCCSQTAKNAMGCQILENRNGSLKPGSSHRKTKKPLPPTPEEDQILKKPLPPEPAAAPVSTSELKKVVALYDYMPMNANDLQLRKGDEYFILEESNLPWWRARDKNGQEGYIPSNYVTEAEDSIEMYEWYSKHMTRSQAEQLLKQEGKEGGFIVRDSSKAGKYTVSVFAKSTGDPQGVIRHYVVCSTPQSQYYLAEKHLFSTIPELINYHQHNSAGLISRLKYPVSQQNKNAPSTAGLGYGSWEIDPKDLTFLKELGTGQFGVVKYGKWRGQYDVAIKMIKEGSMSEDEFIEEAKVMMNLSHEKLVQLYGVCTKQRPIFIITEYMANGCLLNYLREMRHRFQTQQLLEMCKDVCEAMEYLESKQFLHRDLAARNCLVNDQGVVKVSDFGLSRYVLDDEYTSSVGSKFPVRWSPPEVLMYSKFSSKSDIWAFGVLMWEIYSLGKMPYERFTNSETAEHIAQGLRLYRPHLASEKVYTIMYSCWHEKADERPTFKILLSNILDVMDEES

The target of this test is BTK kinase (Homo sapiens (Human), UniProt Q06187). The test is described as follows: BTK kinase experiment (ADP-Glo). The class given is biochemical. The note with it: 2 μM ATP, PolyE4Y1 substrate, 30 minutes pre-incubation. On the procedure:
BTK kinase, PolyE4Y1 substrate and Kinase assay buffer III were purchased from Signalchem; ADP-Glo Kinase Assay was purchased from Promega; Nivo multi-label analyzer (PerkinElmer).
1× buffer preparation (which was prepared and used immediately): Kinase assay buffer III was diluted with ddH2O to 1× assay buffer for later use.
The compound to be tested was diluted with 100% DMSO to 10 μM as the first concentration, and followed by a 5-fold dilution to the 8th concentration using a multi-channel pipette, i.e., it was diluted from 10 μM to 0.128 nM.
Each gradient of the compound to be tested was diluted into a working solution with 5% DMSO using 1× buffer, 1 μL/well was added to the corresponding well, and a double-replicate well experiment was set up. 2 μL of BTK enzyme (4 ng) was add to each well and incubating at 25° C. for 30 minutes. After the incubation was completed, 2 μL of a mixture of substrate and ATP (2 μM ATP, 0.2 μg/μL PolyE4Y1) was added to each well and incubating at 25° C. for 120 minutes. At this point, the final concentration gradient of the compound was diluted from 100 nM to 0.00128 nM. After the reaction was completed, 5 μL of ADP-Glo reagent was added to each well, and the reaction continued at 25° C. for 40 minutes. After the reaction was completed, 10 μL of kinase detection reagent was added to each well. After reacting at 25° C. for 30 minutes, PerkinElmer Nivo multi-label analyzer was used to read the chemiluminescence, and the integration time was 0.5 seconds.
Raw data was converted into inhibition rate using the equation: (Sample−Min)/(Max−Min)*100%. The IC50 value could then be derived by performing a curve fit using four-parameter (which was obtained using the “log(inhibitor) vs. response-Variable slope” mode in GraphPad Prism).
In turn, `Nc1nccc2c1n(-c1ccc(Oc3ccc(Br)cn3)cc1)c(=O)n2[C@@H]1CCCN(C(=O)/C=C/CF)C1` [Compound 006] came in with a 50% inhibitory concentration (IC50) of 13.6 nM.

As to `Cc1cc(-n2c(=O)n([C@@H]3CCCN(C(=O)/C=C/CF)C3)c3ccnc(N)c32)ccc1Oc1ccccc1` [Compound 010], the IC50 amounted to 3.04 nM. In turn, `Nc1nccc2c1n(-c1ccc(Oc3ccc(Cl)cn3)cc1)c(=O)n2[C@@H]1CCCN(C(=O)/C=C/CF)C1` [Compound 007] showed an IC50 of 16 nM.

For the compound `Nc1nccc2c1n(-c1ccc(Oc3ccccc3)c(Cl)c1)c(=O)n2[C@@H]1CCCN(C(=O)/C=C/CF)C1` [Compound 011], the IC50 stood at 1.57 nM. For `Nc1nccc2c1n(-c1ccc(Oc3ccccc3)c(F)c1)c(=O)n2[C@@H]1CCCN(C(=O)/C=C/CF)C1` [Compound 009] the value was 2.8 nM. `C=CC(=O)N1CCC[C@@H](n2c(=O)n(-c3ccc(CNC(=O)c4cc(F)ccc4OC)cc3)c3c(N)nccc32)C1` [Compound 001]: the IC50 amounted to 0.71 nM. With `COc1cccc(Oc2ccc(-n3c(=O)n([C@@H]4CCCN(C(=O)/C=C/CF)C4)c4ccnc(N)c43)cc2)c1F` [Compound 004] the figure was 2.46 nM; with `Nc1nccc2c1n(-c1ccc(Oc3c(F)cccc3F)cc1)c(=O)n2[C@@H]1CCCN(C(=O)/C=C/CF)C1` [Compound 005], 2.85 nM.

With `Nc1nccc2c1n(-c1ccc(Oc3ccc(F)cn3)cc1)c(=O)n2[C@@H]1CCCN(C(=O)/C=C/CF)C1` [Compound 008], the IC50 is 36.5 nM.
